The source of these data is patent publication US7268128B2, “1,3,5-trisubstituted-5-phenyl and 5-pyridyl pyrazolopyrimidinone derivatives having PDE7 inhibiting action” (Ausbio Pharma Co., Ltd., priority 2001, dated 2007).

As usually defined, the IC50 is the midpoint of a concentration-inhibition curve.

T1 sequence (Q13946 whole entry): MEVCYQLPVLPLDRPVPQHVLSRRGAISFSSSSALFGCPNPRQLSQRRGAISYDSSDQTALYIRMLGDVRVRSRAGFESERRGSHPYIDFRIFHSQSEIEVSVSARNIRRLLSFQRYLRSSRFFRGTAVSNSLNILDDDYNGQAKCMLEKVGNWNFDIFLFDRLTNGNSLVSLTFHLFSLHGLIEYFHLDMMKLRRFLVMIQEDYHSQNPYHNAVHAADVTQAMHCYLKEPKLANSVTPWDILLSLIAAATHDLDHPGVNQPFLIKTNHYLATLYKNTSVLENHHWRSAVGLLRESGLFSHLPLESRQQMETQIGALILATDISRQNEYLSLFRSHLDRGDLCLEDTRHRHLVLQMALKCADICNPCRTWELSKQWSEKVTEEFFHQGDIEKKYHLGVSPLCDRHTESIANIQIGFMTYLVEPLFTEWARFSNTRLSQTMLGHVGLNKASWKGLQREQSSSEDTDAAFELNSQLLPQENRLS

The test concerns the target T1, PDE7 (type VII phosphodiesterase) (Homo sapiens, UniProt Q13946).
T1 construct: endogenous in cells; host or cells: MOLT-4 (ATCC CRL-1582), soluble fraction, HiTrapQ anion-exchange fraction
The test can be described thus: PDE7 inhibiting activity (3H-cAMP hydrolysis, active fraction from MOLT-4 cells). It is filed as biochemical. The settings on record: PDE7 fraction from MOLT-4 cells, 0.064 μM cAMP, 10 μM rolipram present, 2 hours at 25° C.; read-out: IC50 values for phosphodiesterase inhibiting activities (PDE7). As for the experimental part: To evaluate the compounds of the present invention for the ability to suppress PDE7 (type VII phosphodiesterase), the method of Biochemical Pharmacol. 48(6), 1219-1223 (1994) was partially modified to perform the following assay:
1) PDE7 (type VII phosphodiesterase) active fraction was obtained. That is, human acute lymphoblastoid lymphoma T cell strain MOLT-4 (purchasable from ATCC under ATCC No. CRL-1582) was cultured in RPMI1640 medium containing 10% fetal bovine serum to obtain 5×10^8 MOLT4 cells. The cells were harvested by centrifugation, and suspended in 10 ml of buffer A (25 mM tris-HCl, 5 mM 2-mercaptoethanol, 2 mM benzamidine, 2 mM EDTA, 0.1 mM 4-(2-aminoethyl)benzenesulfonyl hydrochloride, pH 7=7.5). The cells were homogenized in a Polytoron homogenizer, and centrifuged (4° C., 25,000 G, 10 min). The supernatant was further ultracentrifuged (4° C., 100,000 G, 60 min), and the resulting supernatant was filtered through a 0.2 μm filter to obtain a soluble fraction.
2) HiTrapQ column (5 ml×2) equilibrated with buffer A was charged with the resulting soluble fraction. Phosphodiesterase was eluted using 300 ml of buffer A containing a linear gradient solution of 0 to 0.8M sodium chloride to collect sixty 5 ml fractions. Each fraction was tested for cAMP metabolizing phosphodiesterase activity.
3) The test compounds at desired concentrations were each reacted for 2 hours at 25° C. in a reactant mixture containing 20 mM tris-HCl (pH 7.5), 1 mM MgCl2, 100 μM EDTA, 330 μg/ml bovine serum albumin, 4 μg/ml 5′-nucleotidase, 0.1 μCi^3H-cAMP (0.064 μM cAMP), 10 μM rolipram, and the type VII phosphodiesterase stored solution. QAE-Sephadex suspended in 10 mM HEPES-Na (pH 7.0) was added to the reaction mixture, and the mixture was allowed to stand for 5 minutes. Then, the supernatant was recovered, and QAE-Sephadex was further added, followed by allowing the mixture to stand for 5 minutes. Then, the resulting supernatant was measure for radioactivity.
4) IC50, as the concentration of the test compound that inhibited 50% of the metabolic activity of PDE7, was calculated for each of the compounds.
Take `Cc1nn(C2CCCCC2)c2c(=O)[nH]c(-c3ccccc3)nc12` [Example 1, 1-Cyclohexyl-3-methyl-5-phenyl-1,6-dihydro-7H-pyrazolo[4,3-d]pyrimidin-7-one]: the IC50 was not above 1000 nM. With `Cc1nn(C2CCCCC2)c2c(=O)[nH]c(-c3ccc([N+](=O)[O-])cc3)nc12` [Example 2, 1-Cyclohexyl-3-methyl-5-(4-nitrophenyl)-1,6-dihydro-7H-pyrazolo[4,3-d]pyrimidin-7-one] the figure was not above 1000 nM; with `Cc1nn(C2CCCCC2)c2c(=O)[nH]c(-c3ccc(N)cc3)nc12` [Example 3, 5-(4-Aminophenyl)-1-cyclohexyl-3-methyl-1,6-dihydro-7H-pyrazolo[4,3-d]pyrimidin-7-one], not above 1000 nM; with `CC(=O)Nc1ccc(-c2nc3c(C)nn(C4CCCCC4)c3c(=O)[nH]2)cc1` [Example 4, N-[4-(1-cyclohexyl-3-methyl-7-oxo-6,7-dihydro-1H-pyrazolo[4,3-d]pyrimidin-5-yl)phenyl]acetamide], not above 1000 nM. With `COc1ccccc1-c1nc2c(C)nn(C3CCCCC3)c2c(=O)[nH]1` [Example 5, 1-Cyclohexyl-5-(2-methoxyphenyl)-3-methyl-1,6-dihydro-7H-pyrazolo[4,3-d]pyrimidin-7-one], the IC50 was not above 1000 nM. In the case of `Cc1nn(C2CCCCC2)c2c(=O)[nH]c(-c3ccccn3)nc12` [Example 6, 1-Cyclohexyl-3-methyl-5-(2-pyridinyl)-1,6-dihydro-7H-pyrazolo[4,3-d]pyrimidin-7-one] it was not above 1000 nM. In the case of `Cc1nn(C2CCCCC2)c2c(=O)[nH]c(-c3ccc(N4CCN(C)CC4)cc3)nc12` [Example 7, 1-Cyclohexyl-3-methyl-5-[4-(4-methyl-1-piperazinyl)phenyl]-1,6-dihydro-7H-pyrazolo[4,3-d]pyrimidin-7-one] it was not above 1000 nM. With `COc1cc([N+](=O)[O-])ccc1-c1nc2c(C)nn(C3CCCCC3)c2c(=O)[nH]1` [Example 8, 1-Cyclohexyl-5-(2-methoxy-4-nitrophenyl)-3-methyl-1,6-dihydro-7H-pyrazolo[4,3-d]pyrimidin-7-one] the figure was not above 1000 nM; with `COc1cc(NC(C)=O)ccc1-c1nc2c(C)nn(C3CCCCC3)c2c(=O)[nH]1` [Example 10, N-[4-(1-cyclohexyl-3-methyl-7-oxo-6,7-dihydro-1H-pyrazolo[4,3-d]pyrimidin-5-yl)-3-methoxyphenyl]acetamide], not above 1000 nM; with `Cc1nn(C2CCCCC2)c2c(=O)[nH]c(-c3ccc(N)cn3)nc12` [Example 11, 5-(5-Amino-2-pyridinyl)-1-cyclohexyl-3-methyl-1,6-dihydro-7H-pyrazolo[4,3-d]pyrimidin-7-one], not above 1000 nM. Take `CC(=O)Nc1ccc(-c2nc3c(C)nn(C4CCCCC4)c3c(=O)[nH]2)nc1` [Example 12, N-[6-(1-cyclohexyl-3-methyl-7-oxo-1H-pyrazolo[4,3-d]pyrimidin-5-yl)-3-pyridinyl]acetamide]: the IC50 is not above 1000 nM. With `CCOc1ccccc1-c1nc2c(C)nn(C3CCCCC3)c2c(=O)[nH]1` [Example 13, 1-Cyclohexyl-5-(2-ethoxyphenyl)-3-methyl-1,6-dihydro-7H-pyrazolo[4,3-d]pyrimidin-7-one] the figure was not above 1000 nM; with `Cc1nn(C2CCCCC2)c2c(=O)[nH]c(-c3ccc(N4CCC(O)CC4)cc3)nc12` [Example 14, 1-Cyclohexyl-5-[4-(4-hydroxy-1-piperidinyl)phenyl]-3-methyl-1,6-dihydro-7H-pyrazolo[4,3-d]pyrimidin-7-one], not above 1000 nM. With `COc1cc(N2CCN(C)CC2)ccc1-c1nc2c(C)nn(C3CCCCC3)c2c(=O)[nH]1` [Example 16, 1-Cyclohexyl-5-[2-methoxy-4-(4-methyl-1-piperazinyl)phenyl]-3-methyl-1,6-dihydro-7H-pyrazolo[4,3-d]pyrimidin-7-one] the figure was not above 1000 nM; with `Cc1nn(C2CCCCC2)c2c(=O)[nH]c(-c3cc(Cl)ccn3)nc12` [Example 17, 5-(4-Chloro-2-pyridinyl)-1-cyclohexyl-3-methyl-1,6-dihydro-7H-pyrazolo[4,3-d]pyrimidin-7-one], not above 1000 nM; with `COc1ccc(F)cc1-c1nc2c(C)nn(C3CCCCC3)c2c(=O)[nH]1` [Example 18, 1-Cyclohexyl-5-(5-fluoro-2-methoxyphenyl)-3-methyl-1,6-dihydro-7H-pyrazolo[4,3-d]pyrimidin-7-one], not above 1000 nM. For `COc1ccccc1-c1nc2c(c(C3CCCCC3)nn2C)c(=O)[nH]1` [Example 24, 3-Cyclohexyl-6-(2-methoxyphenyl)-1-methyl-1,5-dihydro-4H-pyrazolo[3,4-d]pyrimidin-4-one], the IC50 is not above 1000 nM. In the case of `Cn1nc(C2CCCCC2)c2c(=O)[nH]c(-c3ccccn3)nc21` [Example 25, 3-Cyclohexyl-1-methyl-6-(2-pyridinyl)-1,5-dihydro-4H-pyrazolo[3,4-d]pyrimidin-4-one] it was not above 1000 nM; in that of `COc1cc(N2CCN(C)CC2)ccc1-c1nc2c(c(C3CCCCC3)nn2C)c(=O)[nH]1` [Example 27, 3-Cyclohexyl-6-[2-methoxy-4-(4-methyl-1-piperazinyl)phenyl]-1-methyl-1,5-dihydro-4H-pyrazolo[3,4-d]pyrimidin-4-one], not above 10 nM; in that of `COc1cc(N2CCN(C)CC2)ccc1-c1nc2c(c(C3CCCCC3)nn2C)c(=O)[nH]1` [Example 28, 3-Cyclohexyl-6-[2-methoxy-4-(4-methyl-1-piperazinyl)phenyl]-1-methyl-1,5-dihydro-4H-pyrazolo[3,4-d]pyrimidin-4-one monomethanesulfonate], not above 10 nM. With `COc1cc(N2CCC3(CC2)OCCO3)ccc1-c1nc2c(c(C3CCCCC3)nn2C)c(=O)[nH]1` [Example 29, 3-Cyclohexyl-6-[4-(1,4-dioxa-8-azaspiro[4,5]deca-8-yl)-2-methoxyphenyl]-1-methyl-1,5-dihydro-4H-pyrazolo[3,4-d]pyrimidin-4-one] the figure was not above 1000 nM. In the case of `COc1cc(N2CCC(O)CC2)ccc1-c1nc2c(c(C3CCCCC3)nn2C)c(=O)[nH]1` [Example 31, 3-Cyclohexyl-6-[4-(4-hydroxy-1-piperidinyl)-2-methoxyphenyl]-1-methyl-1,5-dihydro-4H-pyrazolo[3,4-d]pyrimidin-4-one] it was not above 10 nM; in that of `COc1cc(N2CCC(O)CC2)ccc1-c1nc2c(c(C3CCCCC3)nn2C)c(=O)[nH]1` [Example 32, 3-Cyclohexyl-6-[4-(4-hydroxy-1-piperidinyl)-2-methoxyphenyl]-1-methyl-1,5-dihydro-4H-pyrazolo[3,4-d]pyrimidin-4-one monomethanesulfonate], not above 10 nM. As to `COCCOc1ccc(-c2nc3c(c(C4CCCCC4)nn3C)c(=O)[nH]2)c(OC)c1` [Example 34, 3-Cyclohexyl-6-[2-methoxy-4-(2-methoxyethoxy)phenyl]-1-methyl-1,5-dihydro-4H-pyrazolo[3,4-d]pyrimidin-4-one], the IC50 is not above 1000 nM. In the case of `COc1cc(OCCO)ccc1-c1nc2c(c(C3CCCCC3)nn2C)c(=O)[nH]1` [Example 37, 3-Cyclohexyl-6-[4-(2-hydroxyethoxy)-2-methoxyphenyl]-1-methyl-1,5-dihydro-4H-pyrazolo[3,4-d]pyrimidin-4-one] it was not above 1000 nM; in that of `COc1cc(O[C@H]2CCOC2)ccc1-c1nc2c(c(C3CCCCC3)nn2C)c(=O)[nH]1` [Example 38, 3-Cyclohexyl-6-{2-methoxy-4-[(3S)-tetrahydro-3-furanyloxy]phenyl}-1-methyl-1,5-dihydro-4H-pyrazolo[3,4-d]pyrimidin-4-one], not above 10 nM. On to `COc1cc(O[C@@H]2CCOC2)ccc1-c1nc2c(c(C3CCCCC3)nn2C)c(=O)[nH]1` [Example 39, 3-Cyclohexyl-6-{2-methoxy-4-[(3R)-tetrahydro-3-furanyloxy]phenyl}-1-methyl-1,5-dihydro-4H-pyrazolo[3,4-d]pyrimidin-4-one], for which the IC50 was not above 1000 nM. With `COc1cc(OCC(=O)O)ccc1-c1nc2c(c(C3CCCCC3)nn2C)c(=O)[nH]1` [Example 41, [4-(3-cyclohexyl-1-methyl-4-oxo-4,5-dihydro-1H-pyrazolo[3,4-d]pyrimidin-6-yl)-3-methoxyphenoxy]acetic acid] the figure was not above 1000 nM. With `COc1cc(OC2CCN(C)CC2)ccc1-c1nc2c(c(C3CCCCC3)nn2C)c(=O)[nH]1` [Example 42, 3-Cyclohexyl-6-{2-methoxy-4-[(-methyl-4-piperidinyl)oxy]phenyl}-1-methyl-1,5-dihydro-4H-pyrazolo[3,4-d]pyrimidin-4-one monomaleate] the figure was not above 1000 nM.
